Source: the NIST ThermoML archive (doi:10.1021/je900596d)

Conditions: 357.01 K, Liquid, Vibrating tube method

FC(F)=C(F)C(F)(F)F [hexafluoropropene]
Conditions | mass density [kg/m3]
3815.9 kPa | 942.63
3841.4 kPa | 944.76
3866.1 kPa | 946.85
3891.2 kPa | 948.86
3916.1 kPa | 950.85
3941.3 kPa | 952.87
3966.7 kPa | 954.74
3992.1 kPa | 956.67
4032.7 kPa | 959.68
4052.9 kPa | 961.12
4073.2 kPa | 962.41
4094 kPa | 963.87
4114.8 kPa | 965.29
4135 kPa | 966.6
4155.1 kPa | 967.92
4175.4 kPa | 969.27
4195.5 kPa | 970.62
4215.6 kPa | 971.88
4258.3 kPa | 974.59
4279.4 kPa | 975.81
4299.6 kPa | 977.03
4320.4 kPa | 978.34
4340.8 kPa | 979.7
4361.8 kPa | 980.83
4383.2 kPa | 982.1
4404.3 kPa | 983.28
4445.8 kPa | 985.59
4467.1 kPa | 986.71
4488.7 kPa | 987.99
4929.3 kPa | 1009.65
4970.6 kPa | 1011.35
5012.8 kPa | 1013.28
5053.2 kPa | 1015.04
5094.4 kPa | 1016.71
5178.4 kPa | 1020.12
5218.9 kPa | 1021.7
5262 kPa | 1023.52
5302.8 kPa | 1025.13
5344.2 kPa | 1026.56
5426.4 kPa | 1029.68
5468.6 kPa | 1031.33
5509.4 kPa | 1032.71
5595.1 kPa | 1035.91
5636.8 kPa | 1037.33
5678.3 kPa | 1038.78
5720.2 kPa | 1040.29
5761.9 kPa | 1041.7
5802.7 kPa | 1043
5844 kPa | 1044.41
5885.2 kPa | 1045.79
5926.3 kPa | 1047.08
5966.4 kPa | 1048.43
6079.9 kPa | 1052.05
6121.3 kPa | 1053.27
6161.6 kPa | 1054.49
6202.1 kPa | 1055.73
6242.6 kPa | 1057.02
6283 kPa | 1058.17
6323.7 kPa | 1059.35
6365.4 kPa | 1060.53
6405.9 kPa | 1061.73
6446.1 kPa | 1062.93
6487.1 kPa | 1063.92
6527.7 kPa | 1065.18
6568.3 kPa | 1066.33
6649.5 kPa | 1068.55
6689.8 kPa | 1069.61
6730.6 kPa | 1070.82
6771.8 kPa | 1071.89
6812.8 kPa | 1072.89
6854 kPa | 1074.05
6894.2 kPa | 1075.07
6976.2 kPa | 1077.12
7016.9 kPa | 1078.17
7059.1 kPa | 1079.19
7099.3 kPa | 1080.34
7141 kPa | 1081.32
7182 kPa | 1082.35
7223.7 kPa | 1083.32
7265.2 kPa | 1084.37
7306.5 kPa | 1085.33
7391.5 kPa | 1087.34
7432.1 kPa | 1088.27
7472.8 kPa | 1089.26
7514.5 kPa | 1090.2
7555.9 kPa | 1091.18
7596.5 kPa | 1092.11
7637.6 kPa | 1093.07
7760.7 kPa | 1095.83
7802.6 kPa | 1096.76
7843.1 kPa | 1097.59
7885.2 kPa | 1098.49
7925.7 kPa | 1099.42
7967.5 kPa | 1100.24
8050.7 kPa | 1102.02
8094 kPa | 1102.97
8134 kPa | 1103.77
8175.6 kPa | 1104.71
8217.3 kPa | 1105.6
8258 kPa | 1106.39
8301 kPa | 1107.38
8342.7 kPa | 1108.09
8385.4 kPa | 1108.93
8428.9 kPa | 1109.88
8510.3 kPa | 1111.46
8552.8 kPa | 1112.27
8592.9 kPa | 1113.04
8634.2 kPa | 1113.83
8675.9 kPa | 1114.7
8717.3 kPa | 1115.43
8760 kPa | 1116.3
8843.1 kPa | 1117.91
8884.8 kPa | 1118.68
8926.5 kPa | 1119.39
8969.2 kPa | 1120.21
9010.2 kPa | 1120.94
9055 kPa | 1121.82
9096.9 kPa | 1122.57
9138.6 kPa | 1123.29
9223.4 kPa | 1124.87
9264.9 kPa | 1125.67
9307.3 kPa | 1126.46
9350.7 kPa | 1127.19
9393 kPa | 1127.83
9476.5 kPa | 1129.45
9518.3 kPa | 1130.09
9558.9 kPa | 1130.8
9598.9 kPa | 1131.49
9640.9 kPa | 1132.16
9683.8 kPa | 1132.95
9726.5 kPa | 1133.66
9769.9 kPa | 1134.38
9810.5 kPa | 1135.04
